# Test results from patent publication US8148391B2 (Cephalon, Inc., priority 2006, dated 2012).
# Read-outs that look alike come from different tables or passages of the source.
# Assays:
# [1] = target: T1, c-Met (cytoplasmic domain) (Homo sapiens, UniProt P08581); experiment: c-Met Kinase Assay (same methods as for ALK, with modifications); type: biochemical
# T1 construct: 10 ng/mL c-Met (cytoplasmic domain, Invitrogen Corporation #PV3143); purchased Invitrogen Corporation PV3143
# Method in brief: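 Plates were coated with phospholipase C-γ substrate (10 μg/mL) in TBS, and the reaction was started with 10 ng/mL c-Met cytoplasmic domain and run 15 min at 37 °C. Phosphoproduct was detected with Eu-N1-labelled PT66 antibody. IC50 came from a variable-slope sigmoidal fit of percent inhibition vs log concentration.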
# [2] = target: T2, baculovirus-expressed ALK (Homo sapiens, UniProt Q9UM73); experiment: ALK Kinase Assay (ELISA-type, time-resolved fluorescence); type: biochemical
# T2 construct: host or cells: baculovirus expression system
# Method in brief: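 Plates coated with phospholipase C-γ substrate (10 μg/mL in TBS); reaction started with 30 ng/ml ALK and run 15 min at 37° C. Phosphorylated substrate detected with Eu-N1-labeled PT66 antibody. IC50 from sigmoidal variable-slope fit of percent inhibition vs log concentration.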
# [3] = c-Met kinase inhibition, 1 μM ATP, read-out: cMet Activity
# [4] = ALK kinase inhibition, 1 μM ATP, read-out: ALK Activity
# [5] = 1 μM ATP (Km level), 10 ng/mL c-Met, read-out: cMet Activity (c-Met kinase inhibition, IC50 class)
# [6] = 1 μM ATP (Km level), 30 ng/ml ALK, 37° C., 15 minutes, read-out: ALK Activity (ALK kinase inhibition, IC50 class)
# [7] = c-Met kinase inhibition, 1 μM ATP (Km level), read-out: cMet Activity
# [8] = ALK kinase inhibition, 1 μM ATP (Km level), read-out: ALK Activity
# [9] = 1 μM ATP (Km level), read-out: cMet Activity (c-Met Kinase Inhibition, IC50)
# [10] = 1 μM ATP (Km level), read-out: ALK Activity (ALK Kinase Inhibition, IC50)
# T1 sequence (P08581 956-1390 limits assumed): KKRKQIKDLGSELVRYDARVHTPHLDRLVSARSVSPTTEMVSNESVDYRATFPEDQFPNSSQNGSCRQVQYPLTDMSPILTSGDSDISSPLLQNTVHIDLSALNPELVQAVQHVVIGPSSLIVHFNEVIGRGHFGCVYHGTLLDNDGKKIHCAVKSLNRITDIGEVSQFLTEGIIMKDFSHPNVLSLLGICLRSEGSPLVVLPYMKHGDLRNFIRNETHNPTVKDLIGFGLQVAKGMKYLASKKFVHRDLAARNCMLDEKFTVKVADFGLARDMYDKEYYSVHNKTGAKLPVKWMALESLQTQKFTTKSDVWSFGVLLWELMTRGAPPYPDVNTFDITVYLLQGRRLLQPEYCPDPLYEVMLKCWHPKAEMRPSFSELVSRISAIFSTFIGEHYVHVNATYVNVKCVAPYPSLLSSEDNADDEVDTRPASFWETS
# T2 sequence (Q9UM73 19-1620): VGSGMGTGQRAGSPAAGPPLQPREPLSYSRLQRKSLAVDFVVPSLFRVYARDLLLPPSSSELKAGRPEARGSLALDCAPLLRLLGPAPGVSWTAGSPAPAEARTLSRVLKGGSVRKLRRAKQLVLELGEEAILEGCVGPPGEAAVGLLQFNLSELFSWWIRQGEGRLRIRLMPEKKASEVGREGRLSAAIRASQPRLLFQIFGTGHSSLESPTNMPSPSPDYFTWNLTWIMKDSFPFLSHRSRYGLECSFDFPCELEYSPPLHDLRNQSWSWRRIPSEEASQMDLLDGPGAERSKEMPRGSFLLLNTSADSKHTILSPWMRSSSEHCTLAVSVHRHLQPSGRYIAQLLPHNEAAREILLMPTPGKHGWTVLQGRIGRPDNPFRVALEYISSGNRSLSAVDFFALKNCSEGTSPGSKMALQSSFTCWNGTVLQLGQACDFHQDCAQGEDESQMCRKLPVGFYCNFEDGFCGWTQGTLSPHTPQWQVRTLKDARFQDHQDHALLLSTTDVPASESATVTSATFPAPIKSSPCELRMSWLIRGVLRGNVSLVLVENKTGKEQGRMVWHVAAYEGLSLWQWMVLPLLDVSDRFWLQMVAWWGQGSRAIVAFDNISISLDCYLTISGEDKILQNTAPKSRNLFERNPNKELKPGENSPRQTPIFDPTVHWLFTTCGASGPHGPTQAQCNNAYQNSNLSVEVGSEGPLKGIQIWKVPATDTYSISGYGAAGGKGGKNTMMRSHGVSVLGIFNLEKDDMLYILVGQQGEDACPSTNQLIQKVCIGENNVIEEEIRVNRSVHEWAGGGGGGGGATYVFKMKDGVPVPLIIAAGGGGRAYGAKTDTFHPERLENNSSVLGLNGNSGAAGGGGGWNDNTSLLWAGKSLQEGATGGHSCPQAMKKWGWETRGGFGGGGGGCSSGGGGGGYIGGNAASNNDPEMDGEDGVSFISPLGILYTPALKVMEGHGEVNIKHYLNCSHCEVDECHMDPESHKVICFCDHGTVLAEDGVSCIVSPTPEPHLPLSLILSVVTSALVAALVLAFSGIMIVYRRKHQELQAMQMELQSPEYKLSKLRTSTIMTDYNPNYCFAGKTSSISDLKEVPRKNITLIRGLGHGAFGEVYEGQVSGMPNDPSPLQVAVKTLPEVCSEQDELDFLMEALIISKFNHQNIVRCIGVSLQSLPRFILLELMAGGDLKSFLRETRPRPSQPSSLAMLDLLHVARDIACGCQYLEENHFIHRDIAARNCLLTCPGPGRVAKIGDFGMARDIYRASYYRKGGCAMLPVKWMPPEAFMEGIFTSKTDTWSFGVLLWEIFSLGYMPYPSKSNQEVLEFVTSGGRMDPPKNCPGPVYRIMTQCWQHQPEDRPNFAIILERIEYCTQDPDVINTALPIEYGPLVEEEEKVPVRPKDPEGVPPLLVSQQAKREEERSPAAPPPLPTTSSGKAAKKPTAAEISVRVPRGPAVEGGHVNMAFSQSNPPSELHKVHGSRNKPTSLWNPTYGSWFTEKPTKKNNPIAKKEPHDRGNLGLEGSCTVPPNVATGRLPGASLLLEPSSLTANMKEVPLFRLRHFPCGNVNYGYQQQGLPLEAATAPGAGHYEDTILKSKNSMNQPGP
"IC50 [1, 3]","IC50 [2, 4]","IC50 [1, 7]","IC50 [2, 8]",Molecule,further results
< 100 nM,100 to 1000 nM,–,–,"CNC(=O)c1sccc1Nc1nc(Nc2ccc3c(c2)N(CCOC)C(=O)CCC3)ncc1Cl [Example 1478, 3-{5-Chloro-2-[1-(2-methoxy-ethyl)-2-oxo-2,3,4,5-tetrahydro-1H-benzo[b]azepin-8-ylamino]-pyrimidin-4-ylamino}-thiophene-2-carboxylic acid methylamide]",–
1000 to 10000 nM,1000 to 10000 nM,–,–,"CCN1C(=O)CN(S(C)(=O)=O)Cc2ccc(Nc3ncc(Cl)c(Nc4ccsc4C(=O)NC)n3)cc21 [Example 1872, 3-[5-Chloro-2-(1-ethyl-4-methanesulfonyl-2-oxo-2,3,4,5-tetrahydro-1H-benzo[e][1,4]diazepin-8-ylamino)-pyrimidin-4-ylamino]-thiophene-2-carboxylic acid methylamide]",–
1000 to 10000 nM,< 100 nM,–,–,"COc1cc(N2CCOCC2)ccc1Nc1nc(Nc2ccc3c(c2)N(CCN(C)C)CCCC3(C)C)ncc1Cl [Example 1641, 5-Chloro-N*2*-[1-(2-dimethylamino-ethyl)-5,5-dimethyl-2,3,4,5-tetrahydro-1H-benzo[b]azepin-8-yl]-N*4*-(2-methoxy-4-morpholin-4-yl-phenyl)-pyrimidine-2,4-diamine]",–
100 to 1000 nM,< 100 nM,–,–,"CN(CCC#N)C(=O)c1ccccc1Nc1nc(Nc2ccc3c(c2)CCCC(=O)N3C)ncc1Cl [Example 1682, 2-[5-Chloro-2-(1-methyl-2-oxo-2,3,4,5-tetrahydro-1H-benzo[b]azepin-7-ylamino)-pyrimidin-4-ylamino]-N-(2-cyano-ethyl)-N-methyl-benzamide]",–
100 to 1000 nM,< 100 nM,–,–,"CC1(C)CCCNc2cc(Nc3ncc(Cl)c(N[C@H]4[C@@H](C(N)=O)[C@@H]5C=C[C@H]4C5)n3)ccc21 [Example 1613, (1S,2S,3R,4R)-3-[5-Chloro-2-(5,5-dimethyl-2,3,4,5-tetrahydro-1H-benzo[b]azepin-8-ylamino)-pyrimidin-4-ylamino]-bicyclo[2.2.1]hept-5-ene-2-carboxylic acid amide]",–
< 100 nM,< 100 nM,–,–,"CCN1C(=O)OCCc2cc(Nc3ncc(Cl)c(Nc4ccccc4C(=O)NC)n3)ccc21 [Example 1745, 2-[5-chloro-2-(5-ethyl-6-oxo-5,6,8,9-tetrahydro-7-oxa-5-aza-benzocyclohepten-2-ylamino)-pyrimidin-4-ylamino]-N-methyl-benzamide]",–

# Further lines, the molecule ahead of its results:
Molecule,"IC50 [1, 3]","IC50 [2, 4]","IC50 [1, 7]","IC50 [2, 8]",further results
"COc1cc2c(cc1Nc1ncc(Cl)c(Nc3ccc(N4CCOCC4)cc3OC)n1)CCN(C(CF)CF)CC2 [Example 1391, Chloro-N(2)-[3-(2-fluoro-1-fluoromethyl-ethyl)-8-methoxy-2,3,4,5-tetrahydro-1H-benzo[d]azepin-7-yl]-N(4)-(2-methoxy-4-morpholin-4-yl-phenyl)-pyrimidine-2,4-diamine]",–,–,–,–,"IC50 [1, 5]: > 10000 nM; IC50 [2, 6]: < 100 nM"
"CNC(=O)c1ccccc1Nc1nc(Nc2cc3c(cc2OC)CCN(CCOC)CC3)ncc1Br [Example 198, 2-{5-Bromo-2-[8-methoxy-3-(2-methoxy-ethyl)-2,3,4,5-tetrahydro-1H-benzo[d]azepin-7-ylamino]-pyrimidin-4-ylamino}-N-methyl-benzamide]",–,–,1000 to 10000 nM,< 100 nM,–
"COc1c(Nc2ncc(Cl)c(N[C@H]3[C@@H](C(N)=O)[C@@H]4C=C[C@H]3C4)n2)ccc2c1CCCC(=O)N2 (relative stereo) [Example 139, (2-exo,3-exo)-3-[5-Chloro-2-(6-methoxy-2-oxo-2,3,4,5-tetrahydro-1H-benzo[b]azepin-7-ylamino)-pyrimidin-4-ylamino]-bicyclo[2.2.1]hept-5-ene-2-carboxylic acid amide]",–,–,> 10000 nM,< 100 nM,–
"CCN1CCc2ccc(Nc3ncc(Cl)c(N[C@@H]4CCCC[C@H]4NS(C)(=O)=O)n3)c(OC)c2CC1 [Example 232, N-{(1R,2R)-2-[5-Chloro-2-(3-ethyl-6-methoxy-2,3,4,5-tetrahydro-1H-benzo[d]azepin-7-ylamino)-pyrimidin-4-ylamino]-cyclohexyl}-methanesulfonamide]",–,–,> 10000 nM,< 100 nM,–
"COc1cc2c(cc1Nc1ncc(Cl)c(Nc3ccc(N4CCN(C)CC4)cc3C)n1)CCN(CC(=O)N(C)C)CC2 [Example 802, 2-(7-{5-Chloro-4-[2-methyl-4-(4-methyl-piperazin-1-yl)-phenylamino]-pyrimidin-2-ylamino}-8-methoxy-1,2,4,5-tetrahydro-benzo[d]azepin-3-yl)-N,N-dimethyl-acetamide]",–,–,–,–,"IC50 [1, 9]: > 10000 nM; IC50 [2, 10]: < 100 nM"
"3-{2-[2-(1-Acetyl-4-oxo-1,2,3,4,5,6-hexahydro-1,5-benzodiazepin-8-ylamino)-5-chloro-pyrimidin-4-ylamino]-phenoxy}-propionitrile [Example 1237]",–,–,–,–,"IC50 [1, 5]: 100 to 1000 nM; IC50 [2, 6]: < 100 nM"
"2-[5-Chloro-2-(1-methyl-1,2,3,5-tetrahydro-benzo[e][1,4]oxazepin-7-ylamino)-pyrimidin-4-ylamino]-N-(2-hydroxy-ethyl)-benzamide and 2-{2-[5-Chloro-2-(1-methyl-1,2,3,5-tetrahydro-benzo[e][1,4]oxazepin-7-ylamino)-pyrimidin-4-ylamino]-phenyl}-oxazolidin-2-ol [Example 16]",–,–,< 100 nM,< 100 nM,–
"CNC(=O)c1ccccc1Nc1nc(Nc2ccc3c(c2Br)C2CCC3CN(C(=O)C(F)(F)F)C2)ncc1Cl (stereo not drawn) [Example 297, 2-{2-[3-Bromo-10-(2,2,2-trifluoro-acetyl)-10-aza-tricyclo[6.3.2.0*2,7*]trideca-2,4,6-trien-4-ylamino]-5-chloro-pyrimidin-4-ylamino}-N-methyl-benzamide]",–,–,> 10000 nM,100 to 1000 nM,–
"CCN1C(=O)CCCc2ccc(Nc3ncc(Cl)c(Nc4ccc(CC#N)cc4)n3)cc21 [Example 1225, {4-[5-Chloro-2-(1-ethyl-2-oxo-2,3,4,5-tetrahydro-1H-1-benzazepin-8-ylamino)-pyrimidin-4-ylamino]-phenyl}-acetonitrile]",–,–,–,–,"IC50 [1, 5]: 1000 to 10000 nM; IC50 [2, 6]: 100 to 1000 nM"
"COCCN1CCc2cc(Nc3ncc(Cl)c(NC4C5C=CC(C5)C4c4nc5ccccc5[nH]4)n3)c(OC)cc2CC1 (stereo not drawn) [Example 610, N*4*-[(2-exo-3-exo)-3-(1H-Benzoimidazol-2-yl)-bicyclo[2.2.1]hept-5-en-2-yl]-5-chloro-N*2*-[8-methoxy-3-(2-methoxy-ethyl)-2,3,4,5-tetrahydro-1H-benzo[d]azepin-7-yl]-pyrimidine-2,4-diamine]",–,–,–,–,"IC50 [1, 9]: > 10000 nM; IC50 [2, 10]: 1000 to 10000 nM"
"COc1cc(N2CCOCC2)ccc1Nc1nc(Nc2ccc3c(c2)CCN(C[C@H](OC)C(F)(F)F)CC3)ncc1Cl [Example 337, 5-Chloro-N*4*-(2-methoxy-4-morpholin-4-yl-phenyl)-N*2*-[-((S)-3,3,3-trifluoro-2-methoxy-propyl)-2,3,4,5-tetrahydro-1H-benzo[d]azepin-7-yl]-pyrimidine-2,4-diamine]",–,–,> 10000 nM,< 100 nM,–
"CNC(=O)c1ccccc1Nc1nc(Nc2ccc3c(c2OC)CCCC(=O)N3CCOC)ncc1Cl [Example 126, 2-{5-Chloro-2-[6-methoxy-1-(2-methoxy-ethyl)-2-oxo-2,3,4,5-tetrahydro-1H-benzo[b]azepin-7-ylamino]-pyrimidin-4-ylamino}-N-methyl-benzamide]",–,–,1000 to 10000 nM,< 100 nM,–
